Data published in patent US5985885A, “Quinazoline-4-amino-2-(piperidine-1-yl-4-substituted) derivatives having antihypertensive activity, a method for their preparation and their pharmaceutical use” (priority 1996, dated 1999).
pIC50: −log10 of the molar value. Counter-ions that a name gives are not always drawn. Like-named read-outs stand apart in the source and are kept apart here.

Assays:
[1] = target: T1, 5-HT2 receptors (isolated rabbit aorta) (Oryctolagus cuniculus, UniProt G1SYA7); assay: Antagonism of serotonin-induced contraction of isolated rabbit aorta; settings: for pIC50: isolated rabbit aorta, 37° C., compound 10 min before agonist, limits (p < 0.05); for 5-HT2-antagonist activity (in words): rabbit aorta
T1 construct: Four rings formed from rabbit aorta were joined together to form a chain; from tissue; host or cells: isolated rabbit aorta rings
T1 sequence (G1SYA7 1-469): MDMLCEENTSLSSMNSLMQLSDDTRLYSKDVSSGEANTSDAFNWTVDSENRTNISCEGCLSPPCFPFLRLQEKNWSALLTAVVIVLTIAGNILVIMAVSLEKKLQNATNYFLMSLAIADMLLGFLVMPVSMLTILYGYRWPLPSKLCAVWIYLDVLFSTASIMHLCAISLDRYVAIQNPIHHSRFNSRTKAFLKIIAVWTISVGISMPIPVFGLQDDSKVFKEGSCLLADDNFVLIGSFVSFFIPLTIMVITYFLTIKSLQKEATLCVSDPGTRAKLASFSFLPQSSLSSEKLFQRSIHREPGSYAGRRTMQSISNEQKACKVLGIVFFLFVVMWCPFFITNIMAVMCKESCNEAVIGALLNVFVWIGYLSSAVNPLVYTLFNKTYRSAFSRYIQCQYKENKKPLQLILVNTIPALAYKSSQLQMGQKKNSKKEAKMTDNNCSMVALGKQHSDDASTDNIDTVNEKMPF
Protocol: The antagonist activity of some of the compounds of the invention on the contractile activity of seratonin on isolated rabbit aorta, effected principally by way of the 5-HT2 receptors, is reported here by way of example. The method of Feniuk et al [Br. J. Pharmacol. (1985), 86, 697-704] was used, with slight modifications. Four rings formed from rabbit aorta were joined together to form a chain; the preparation was placed in an isolated organ bath in the presence of Krebs at 37° C. and attached to an isometric transducer, a tension of 2 g being applied and oxygenation was carried out continuously with O2 --CO2 (95-5 v/v). A seratonin concentration(0.3 μM) was used that was capable of causing sub-maximal contraction of the preparation. […] The results obtained in this way are given in Table 4 below which, for several of the compounds of the invention gives IC50 values calculated by the regression method on a set of at least 2 experiments at 5 different concentrations for each of the compounds examined, these being compared with values obtained for several reference compounds.

[2] = target: T2, alpha1B adrenergic receptor (rat liver) (Rattus norvegicus, UniProt P15823); assay: [3H]-prazosin binding in rat liver
T2 sequence (P15823 1-515): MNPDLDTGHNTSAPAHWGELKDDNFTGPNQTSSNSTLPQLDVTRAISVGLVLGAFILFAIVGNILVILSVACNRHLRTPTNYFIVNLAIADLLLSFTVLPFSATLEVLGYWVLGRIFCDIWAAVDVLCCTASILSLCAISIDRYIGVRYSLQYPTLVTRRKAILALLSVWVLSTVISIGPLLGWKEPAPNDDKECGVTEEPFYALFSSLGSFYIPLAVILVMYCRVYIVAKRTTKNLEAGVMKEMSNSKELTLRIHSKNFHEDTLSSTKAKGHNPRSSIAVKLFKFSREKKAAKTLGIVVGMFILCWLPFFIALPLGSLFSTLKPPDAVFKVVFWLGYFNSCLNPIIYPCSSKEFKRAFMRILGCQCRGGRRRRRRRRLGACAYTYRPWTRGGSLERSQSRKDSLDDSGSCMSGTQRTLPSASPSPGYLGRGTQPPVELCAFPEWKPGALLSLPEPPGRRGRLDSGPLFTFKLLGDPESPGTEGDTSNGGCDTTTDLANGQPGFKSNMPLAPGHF

[3] = tested on: spontaneously hypertensive (SHR) rat; assay: Anti-hypertensive activity in the spontaneously hypertensive (SHR) rat (oral); format: in vivo; settings: for ED20: Rattus norvegicus, 2 h, read-out: Systolic pressure ED20 (0-120 min)
Excerpt: Animals having a mean basal systolic pressure of not less than 180 mmHg were used.

[4] = target: T3, alpha1A adrenergic receptor (rat GSM) (Rattus norvegicus, UniProt P43140); assay: [3H]-prazosin binding in rat submaxillary glands (GSM); settings: alpha1A subtype, pH 7.4, 45 min, 25° C., read-out: Inhibition of the binding of [3H]-prazosin IC50
T3 sequence (P43140 1-466): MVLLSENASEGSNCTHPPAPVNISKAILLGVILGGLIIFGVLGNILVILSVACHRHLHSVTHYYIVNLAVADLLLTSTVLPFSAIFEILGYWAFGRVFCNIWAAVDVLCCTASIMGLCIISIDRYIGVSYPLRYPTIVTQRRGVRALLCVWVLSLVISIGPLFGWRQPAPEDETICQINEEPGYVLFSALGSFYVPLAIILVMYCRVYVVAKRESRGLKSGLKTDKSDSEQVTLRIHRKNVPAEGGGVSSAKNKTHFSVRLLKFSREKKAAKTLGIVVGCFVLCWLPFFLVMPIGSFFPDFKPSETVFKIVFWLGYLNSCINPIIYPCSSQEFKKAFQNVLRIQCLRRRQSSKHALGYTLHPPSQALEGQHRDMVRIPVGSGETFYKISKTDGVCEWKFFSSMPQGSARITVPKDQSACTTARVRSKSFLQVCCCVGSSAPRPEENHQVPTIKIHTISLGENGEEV

[5] = target: alpha1A + alpha1C adrenergic receptor (human prostate); assay: [3H]-prazosin binding in human prostate; settings: alpha1A + alpha1C subtype, pH 7.5, 30 min, 25° C., read-out: Inhibition of the binding of [3H]-prazosin IC50
[6] = tested on: anaesthetised normotensive rat; assay: Hypotensive activity in the anaesthetised normotensive rat (IV); format: in vivo; settings: for ED30: Rattus norvegicus, read-out: Reduction in mean arterial pressure ED30
Protocol: In order to evaluate the in vivo activity, some of the compounds of the invention were administered (IV) in bolus form to the normotensive rat anaesthetised with urethane plus ketamine. The compounds were administered in at least three doses in experiments performed in duplicate so as to enable the calculation of ED30 values, that is, the dose in mg/kg that reduces the mean basal arterial pressure by 30%. The compounds of the invention, and several reference standards, were dissolved in dilute hydrochloric acid at a physiologically acceptable pH, and physiological solution was administered in a volume of 3 ml/kg. Evaluations were made at two time periods, that is, the intervals 0-30 min and 30-60 min after administration.

in vivo = settings: rat
[7] = tested on: alpha1A, alpha1B and alpha1C adrenergic receptor subtypes; assay: [3H]-prazosin binding, alpha1 subtypes together (Table 3 overall); settings: reference compounds versus compounds of the invention/prazosin
[8] = 0.5 h, IV bolus, interval 0-30 min
[9] = 1 h, IV bolus, interval 30-60 min

COc1cc2nc(N3CCC(c4cccs4)CC3)nc(N)c2cc1OC [Compound 6]
pIC50 [1]: 4.05 | pIC50 [2]: 8.22 | Cardiac frequency, max effect at 3 mg/kg ([3]; 3 mg/kg): +2.7 % vs basal | Systolic pressure, max effect at 3 mg/kg ([3]; 3 mg/kg): -8.4 % vs basal | pIC50 [4]: 8.39 | pIC50 [5]: 8.35 | ED30 [6, 8]: 0.06 mg/kg | ED30 [6, 9]: 0.08 mg/kg

COc1cc2nc(N3CCC(c4ccccn4)CC3)nc(N)c2cc1OC [Compound 7, 1-(4-amino-6,7-dimethoxy-2-quinazolinyl)-4-(2-pyridyl)piperidine(hydrochloride)]
pIC50 [1]: 4.26 | pIC50 [2]: 8.09 | anti-hypertensive action (in words) [3]: about as powerful as prazosin | Cardiac frequency, max effect at 3 mg/kg ([3]; 3 mg/kg): +0.9 % vs basal | Systolic pressure, max effect at 3 mg/kg ([3]; 3 mg/kg): -22.7 % vs basal | ED20 ([3]; 0-120 min, NC: not calculable): 2.2 mg/kg | pIC50 [4]: 8.51 | pIC50 [5]: 8.30 | bioavailability (in vivo; plasma, po, 15 mg/kg OS vs 1 mg/kg IV, read-out: relative bioavailability (AUC OS/AUC IV, dose corrected)): ~80% | AUC (in vivo; plasma, po, OS 15 mg/kg): 3620 ng·h/mL | concentration at 0.25 h (in vivo; plasma, po, OS 15 mg/kg): 230 ng/mL | concentration at 0.5 h (in vivo; plasma, po, OS 15 mg/kg): 360 ng/mL | concentration at 1 h (in vivo; plasma, po, OS 15 mg/kg): 480 ng/mL | concentration at 2 h (in vivo; plasma, po, OS 15 mg/kg): 390 ng/mL | concentration at 3 h (in vivo; plasma, po, OS 15 mg/kg, 3 h): 340 ng/mL | concentration at 4 h (in vivo; plasma, po, OS 15 mg/kg, 4 h): 320 ng/mL | concentration at 6 h (in vivo; plasma, po, OS 15 mg/kg, 6 h): 280 ng/mL | concentration at 8 h (in vivo; plasma, po, OS 15 mg/kg, 8 h): 180 ng/mL | concentration at 12 h (in vivo; plasma, po, OS 15 mg/kg, 12 h): 80 ng/mL | AUC (in vivo; plasma, IV 1 mg/kg): 300 ng·h/mL | concentration at 0.083 h (in vivo; plasma, IV 1 mg/kg, 0.083 h): 420 ng/mL | concentration at 0.25 h (in vivo; plasma, IV 1 mg/kg): 300 ng/mL | concentration at 0.5 h (in vivo; plasma, IV 1 mg/kg): 180 ng/mL | concentration at 1 h (in vivo; plasma, IV 1 mg/kg): 100 ng/mL | concentration at 2 h (in vivo; plasma, IV 1 mg/kg): 40 ng/mL | Plasma concentration (in vivo; IV 1 mg/kg, 6 h): 0 ng/mL | concentration at 3 h (in vivo; plasma, iv, 1 mg/kg): 20 ng/mL | concentration at 4 h (in vivo; plasma, iv, 1 mg/kg): 10 ng/mL | concentration at 24 h (in vivo; plasma, po, 15 mg/kg): 20 ng/mL | half-life (in vivo; plasma, read-out: half-life, terminal elimination phase (converted)): ~6 h | ED30 [6, 8]: 0.08 mg/kg | ED30 [6, 9]: 0.09 mg/kg

COc1cc2nc(N3CCC(c4cc5ccccc5o4)CC3)nc(N)c2cc1OC [Compound 8]
pIC50 [1]: 4.78 | pIC50 [2]: 8.28 | anti-hypertensive action (in words) [3]: about as powerful as prazosin | Cardiac frequency, max effect at 3 mg/kg ([3]; 3 mg/kg): -5.2 % vs basal | Systolic pressure, max effect at 3 mg/kg ([3]; 3 mg/kg): -20.2 % vs basal | ED20 ([3]; 0-120 min, NC: not calculable): 2.6 mg/kg | pIC50 [4]: 7.74 | pIC50 [5]: 7.70 | ED30 [6, 8]: 0.07 mg/kg | ED30 [6, 9]: 0.09 mg/kg

COc1cc2nc(N3CCN(C(=O)c4ccco4)CC3)nc(N)c2cc1OC [Prazosin, reference compound]
pIC50 [1]: < 3.88 | 5-HT2-antagonist activity (in words) [1]: inactive until higher doses (50 μg/ml) | Cardiac frequency, max effect at 3 mg/kg ([3]; 3 mg/kg): +9.7 % vs basal | Systolic pressure, max effect at 3 mg/kg ([3]; 3 mg/kg): -20.0 % vs basal | increase in cardiac frequency over the basal frequency ([3]; 3 mg/kg, significant): approximately 10% | ED20 ([3]; 0-120 min, NC: not calculable): 2.8 mg/kg | ED30 [6, 8]: 0.02 mg/kg | ED30 [6, 9]: 0.05 mg/kg

COc1ccc(CCN(C)CCCC(C#N)(c2ccc(OC)c(OC)c2)C(C)C)cc1OC (stereo not drawn) [Verapamil, reference compound]
Cardiac frequency, max effect at 3 mg/kg ([3]; 3 mg/kg): +2.8 % vs basal | Systolic pressure, max effect at 3 mg/kg ([3]; 3 mg/kg): -9.0 % vs basal | reduction of arterial pressure ([3]; 3 mg/kg): ≤ 9% | hypotensive activity compared with prazosin/compounds (in words) ([6]; IV bolus): less active | ED30 ([6]; iv, 0.5 h): 0.63 mg/kg | ED30 ([6]; iv, 1 h): 1.06 mg/kg

COc1cccc(OC)c1OCCNCC1COc2ccccc2O1 (stereo not drawn) [WB-4101, reference compound]
pIC50 [1]: < 3.84 | 5-HT2-antagonist activity (in words) [1]: inactive until higher doses (50 μg/ml) | times less powerful (on average) [7]: 10 to 30 times | anti-hypertensive action (in words) [3]: inactive | Systolic pressure ED20 (0-120 min) ([3]; 0-120 min, NC: not calculable): INACTIVE | Cardiac frequency, max effect at 3 mg/kg ([3]; 3 mg/kg): -5.7 % vs basal | Systolic pressure, max effect at 3 mg/kg ([3]; 3 mg/kg): -2.6 % vs basal | pIC50 [4]: 7.78 | hypotensive activity compared with prazosin/compounds (in words) ([6]; IV bolus): less active | ED30 ([6]; iv, 0.5 h): 0.13 mg/kg | ED30 ([6]; iv, 1 h): 0.29 mg/kg
